Source: patent US20210130617A1, “COLORING COMPOSITION, FILM, COLOR FILTER, METHOD FOR MANUFACTURING COLOR FILTER, SOLID-STATE IMAGING ELEMENT, AND IMAGE DISPLAY DEVICE” (FUJIFILM Corporation, priority 2018, published 2021)

Tests used:
[1] = Solubility in PGMEA at 25° C. (visual check of insoluble matters); type: physicochemical
Excerpt: The evaluation standard is as follows.

[2] = Maximum absorption wavelength in chloroform (Cary 5000 spectrophotometer); type: physicochemical; conditions: wavelength range 400 to 800 nm
Protocol: In addition, the maximum absorption wavelength was obtained by dissolving 50 mg of each compound in 200 mL of chloroform, adding chloroform to 2 mL of this solution so as to be 200 mL, and measuring the absorbance of the solution in a wavelength range of 400 to 800 nm using Cary 5000 UV-Vis-NIR spectrophotometer (manufactured by Agilent Technologies, Inc.).

| SMILES | Solubility [1] | Maximum absorption wavelength [2] | solubility at 15 min ([1]; organic solvent or mixture, thermodynamic from solid) |
| --- | --- | --- | --- |
| O=C1C(=C2C(O)=CC(=[N+](c3cccc4ccccc34)c3cccc4ccccc34)C=C2O)C([O-])=C1c1c(O)cc(N(c2cccc3ccccc23)c2cccc3ccccc23)cc1O [SQ-77] | A (solubility is 20 mg/L or less.) | 670 nm |  |
| CC(C)(C)c1ccc(N(c2ccc(C3=C([O-])C(=C4C=CC(=[N+](c5ccc(C(C)(C)C)cc5)c5cccc6ccccc56)C=C4O)C3=O)c(O)c2)c2cccc3ccccc23)cc1 [SQ-14] | C (solubility is more than 25 mg/L and 30 mg or less.) | 670 nm |  |
| O=C1C(=C2C(O)=CC(=[N+](c3ccc(Cl)cc3)c3cccc4ccccc34)C=C2O)C([O-])=C1c1c(O)cc(N(c2ccc(Cl)cc2)c2cccc3ccccc23)cc1O [SQ-74] | A (solubility is 20 mg/L or less.) | 665 nm |  |
| Cc1ccccc1N(c1ccc(C2=C([O-])C(=C3C=CC(=[N+](c4ccccc4C)c4cccc5ccccc45)C=C3O)C2=O)c(O)c1)c1cccc2ccccc12 [SQ-4] | B (solubility is more than 20 mg/L and 25 mg or less.) | 675 nm |  |
| Cc1cccc(N(c2ccc(C3=C([O-])C(=C4C=CC(=[N+](c5cccc(C)c5)c5cccc6ccccc56)C=C4O)C3=O)c(O)c2)c2cccc3ccccc23)c1 [SQ-3] | B (solubility is more than 20 mg/L and 25 mg or less.) | 675 nm |  |
| CCOc1ccc(N(c2ccc(C3=C([O-])C(=C4C=CC(=[N+](c5ccc(OCC)cc5)c5cccc6ccccc56)C=C4O)C3=O)c(O)c2)c2cccc3ccccc23)cc1 [SQ-15] | B (solubility is more than 20 mg/L and 25 mg or less.) | 680 nm |  |
| Cc1ccc(N(c2ccc(C3=C([O-])C(=C4C=CC(=[N+](c5ccc(C)cc5C)c5cccc6ccccc56)C=C4O)C3=O)c(O)c2)c2cccc3ccccc23)c(C)c1 [SQ-7] | C (solubility is more than 25 mg/L and 30 mg or less.) | 680 nm |  |
| CCc1ccc(N(c2ccc(C3=C([O-])C(=C4C=CC(=[N+](c5ccc(CC)cc5)c5cccc6ccccc56)C=C4O)C3=O)c(O)c2)c2cccc3ccccc23)cc1 [SQ-13] | B (solubility is more than 20 mg/L and 25 mg or less.) | 675 nm |  |
| Cc1ccc(N(c2ccc(C3=C([O-])C(=C4C=CC(=[N+](c5ccc(C)cc5)c5cccc6ccccc56)C=C4O)C3=O)c(O)c2)c2cccc3ccccc23)cc1 [SQ-2] | B (solubility is more than 20 mg/L and 25 mg or less.) | 675 nm |  |
| CC(=O)Nc1ccc(N(c2ccc(C3=C([O-])C(=C4C=CC(=[N+](c5ccc(NC(C)=O)cc5)c5cccc6ccccc56)C=C4O)C3=O)c(O)c2)c2cccc3ccccc23)cc1 [SQ-19] | A (solubility is 20 mg/L or less.) | 670 nm |  |
| CCCCN(CCCC)c1cc(O)c(C2=C([O-])C(=C3C(O)=CC(=[N+](CCCC)CCCC)C=C3O)C2=O)c(O)c1 [SQ-R1, reference compound] |  | 655 nm | > 30 µg/mL |
| O=C1C(=C2C=CC(=[N+](c3ccccc3-c3ccccc3)c3ccccc3[N+](=O)[O-])C=C2O)C([O-])=C1c1ccc(N(c2ccccc2-c2ccccc2)c2ccccc2[N+](=O)[O-])cc1O [SQ-108] | A (solubility is 20 mg/L or less.) | 685 nm |  |
| O=C1C(=C2C=CC(=[N+](c3ccccc3)c3cc(C(F)(F)F)cc(C(F)(F)F)c3)C=C2O)C([O-])=C1c1ccc(N(c2ccccc2)c2cc(C(F)(F)F)cc(C(F)(F)F)c2)cc1O [SQ-67] | C (solubility is more than 25 mg/L and 30 mg or less.) | 675 nm |  |
| O=C1C(=C2C(O)=CC(=[N+](c3ccccc3)c3cccc4ccccc34)c3ccccc32)C([O-])=C1c1c(O)cc(N(c2ccccc2)c2cccc3ccccc23)c2ccccc12 [SQ-104] | A (solubility is 20 mg/L or less.) | 695 nm |  |
| O=C1C(=C2C=CC(=[N+](c3ccco3)c3cccc4ccccc34)C=C2O)C([O-])=C1c1ccc(N(c2ccco2)c2cccc3ccccc23)cc1O [SQ-25] | B (solubility is more than 20 mg/L and 25 mg or less.) | 665 nm |  |
| CCOC1=CC(=[N+](c2ccccc2)c2cccc3ccccc23)C=CC1=C1C(=O)C(c2ccc(N(c3ccccc3)c3cccc4ccccc34)cc2OCC)=C1[O-] [SQ-101] | A (solubility is 20 mg/L or less.) | 690 nm |  |
| O=C1C(=C2C=CC(=[N+](c3ccccc3-c3ccccc3)c3ccccc3-c3ccccc3)C=C2O)C([O-])=C1c1ccc(N(c2ccccc2-c2ccccc2)c2ccccc2-c2ccccc2)cc1O [SQ-110] | A (solubility is 20 mg/L or less.) | 675 nm |  |
| O=C1C(=C2C(O)=CC(=[N+](c3ccccc3)c3ccc4ccccc4c3)C=C2O)C([O-])=C1c1c(O)cc(N(c2ccccc2)c2ccc3ccccc3c2)cc1O [SQ-96] | A (solubility is 20 mg/L or less.) | 690 nm |  |

Next, values leading:

| Solubility [1] | Maximum absorption wavelength [2] | solubility at 15 min ([1]; organic solvent or mixture, thermodynamic from solid) | SMILES |
| --- | --- | --- | --- |
| A (solubility is 20 mg/L or less.) | 685 nm |  | CN(C)c1ccc(N(c2ccc(C3=C([O-])C(=C4C=CC(=[N+](c5ccc(N(C)C)cc5)c5cccc6ccccc56)C=C4O)C3=O)c(O)c2)c2cccc3ccccc23)cc1 [SQ-18] |
| A (solubility is 20 mg/L or less.) | 660 nm |  | N#Cc1ccc(N(c2ccc(C3=C([O-])C(=C4C=CC(=[N+](c5ccc(C#N)cc5)c5cccc6ccccc56)C=C4O)C3=O)c(O)c2)c2cccc3ccccc23)cc1 [SQ-16] |
| A (solubility is 20 mg/L or less.) | 665 nm |  | O=C1C(=C2C=CC(=[N+](c3ccc(Cl)cc3)c3cccc4ccccc34)C=C2O)C([O-])=C1c1ccc(N(c2ccc(Cl)cc2)c2cccc3ccccc23)cc1O [SQ-12] |
| A (solubility is 20 mg/L or less.) | 675 nm |  | CSc1ccc(N(c2ccc(C3=C([O-])C(=C4C=CC(=[N+](c5ccc(SC)cc5)c5cccc6ccccc56)C=C4O)C3=O)c(O)c2)c2cccc3ccccc23)cc1 [SQ-17] |
| A (solubility is 20 mg/L or less.) | 670 nm |  | O=C1C(=C2C=CC(=[N+](c3ccccc3)c3cccc4ccccc34)C=C2O)C([O-])=C1c1ccc(N(c2ccccc2)c2cccc3ccccc23)cc1O [SQ-1] |
| A (solubility is 20 mg/L or less.) | 680 nm |  | O=C1C(=C2C=CC(=[N+](c3cccc4ccccc34)c3cccc4ccccc34)C=C2O)C([O-])=C1c1ccc(N(c2cccc3ccccc23)c2cccc3ccccc23)cc1O [SQ-29] |
